The values below come from patent publication EP0126483A2, “Deodorant” (Eduard Gerlach GmbH Chemische Fabrik, priority 1983, dated 1984).

Bounds are passed on as bounds.

The first data set relates to Achsel- und Fußschweiß. The conditions noted are these: 3 %ige Lösung in Alkohol/Wassergemisch.
From the text: Die Wirksamkeit der in der Beschreibung genannte Verbindungen wurde folgendermaßen ermittelt: • 1) Die Versuchspersonen, 10 männliche und 10 weibliche Probanden, benutzten zur Körperreinigung ein von bakteriziden und fungiziden Stoffen freies Duschbad. Die linke Achselhöhle und der linke Fuß, insbesondere die Partien zwischen den Zehen, wurden mit einem Präparat gemäß den Beispielen behandelt. Die rechte Achselhöhle und der rechte Fuß wurden nicht behandelt. Die Prüfung erfolgte nach 12 und 24 Stunden durch die Versuchsansteller, indem jeweils ein geruchsfreies Mullkissen aus 4 Lagen Verbandmull mit den behandelten und unbehandelten Stellen in intensive Berührung durch Reiben gebracht wurde. Anschließend prüften die Tester den Geruch der Kissen selbst. […] Sie wurden verpflichtet, kein anderes desodorierendes Präparat, sei es ein kosmetisches Spezialpräparat oder eine sogenannte "Deo-Seife" zu benutzen.
`CC(C)(CO)C(O)C(=O)NCCCO` (centres unmarked) [Panthenol, N-Propanolamid der 1,3-Dihydroxy-2,2-Dimethylbuttersäure, reference compound]: the “Desodorierung des Achsel- und Fußschweißes” value was “befriedigende Desodorierung”.

Staying with this data set, now noted: 3 bis 5 % in a deodorant preparation; time after application.
Take `CC(=O)NCCO` [Essigsäuremonoethanolamid]: the “anhaltender Schutz vor der Bildung unangenehmer Zersetzungsprodukte des Achsel- und Fußschweißes” value is not above 24 Stunden.

Staying with this data set, now noted: 5 % in Alkohol/Wassergemisch; also in strongly perspiring persons.
With `CC(C)(CO)C(O)C(=O)NCCCO` (centres unmarked) [Panthenol, N-Propanolamid der 1,3-Dihydroxy-2,2-Dimethylbuttersäure, reference compound], the “Desodorierung des Achsel- und Fußschweißes” value is “optimal”.

The data set is the same for the next values; noted with them: in vivo.
Take `CC(C)(CO)C(O)C(=O)NCCCO` (centres unmarked) [Panthenol, N-Propanolamid der 1,3-Dihydroxy-2,2-Dimethylbuttersäure, reference compound]: the Hautfreundlichkeit entry is reported as “hervorragender”.

The data set is the same for the next values; noted with them: result in words; concentration not given.
On to `NC(=O)NC(N)=O` [Biuret], for which the “desodorierende Wirksamkeit” value is on record as “Wirksam”.

On to `CC(=O)NCCO` [Essigsäuremonoethanolamid], for which the “desodorierende Wirksamkeit” value is “besonders kräftiger Wirkstoff”.

As for `CC(O)C(=O)NCCO` (centres unmarked) [Ethanolamide der Milchsäure], the “desodorierende Wirksamkeit” value is on record as “Die gleiche Eigenschaft”.

Regarding `CCC(=O)NCCO` [Ethanolamide der Propionsäure], the “desodorierende Wirksamkeit” value is recorded as “Die gleiche Eigenschaft”.

In the case of `NC(N)=O` [Harnstoff, reference compound], the “desodorierende Wirksamkeit” value was “mit bestem Erfolg”.

As for `O=C(O)CNC(=O)c1ccccc1` [Hippursäure], the “desodorierende Wirksamkeit” value is listed as “Wirksam”.

In the case of `O=C1CC(=O)NC(=O)N1` [Malonylharnstoff(Barbitursäure), Malonylharnstoff], the “desodorierende Wirksamkeit” value is given as “Wirksam”.

As to `CC(=O)NCC(=O)O` [N-Acetylglycin (Acetursäure), N-Acetylglycin], the “desodorierende Wirksamkeit” value was “gute Wirkstoffe”.

Turning to `CCOC(N)=O` [Urethan], the “desodorierende Wirksamkeit” value is recorded as “Wirksam”.

Take `NC(=O)NCCO` [ß-Hydroxiethylharnstoff]: the “desodorierende Wirksamkeit” value is given as “Sehr wirksam”.

For Ethanolamide der Adipinsäure, the “desodorierende Wirksamkeit” value was “Erfolgreich getestet”.

For the molecule Ethanolamide der Bernsteinsäure, the “desodorierende Wirksamkeit” value was “Erfolgreich getestet”.

For the molecule Ethanolamide der Glutarsäure, the “desodorierende Wirksamkeit” value is listed as “Erfolgreich getestet”.

Take Ethanolamide der Malonsäure: the “desodorierende Wirksamkeit” value is “Erfolgreich getestet”.

For the molecule Ethanolamide der Weinsäure, the “desodorierende Wirksamkeit” value is listed as “Erfolgreich getestet”.

Ethanolamide der Zitronensäure: the “desodorierende Wirksamkeit” value is “Erfolgreich getestet”.
